Experimental data as given in patent US8445510B2, “Fused bicyclic kinase inhibitors” (OSI Pharmaceuticals, LLC, priority 2011, dated 2013).

Tests used:
[1] = tested on: MKN45 cells; assay: MKN45 cell proliferation assay (CellTiter-Glo); format: cell-based; settings: Homo sapiens, MKN-45, 72 h; MKN45 cell line; 3 days incubation; at least duplicate experiments; read-out: Prolif. IC50
[2] = target: T1, Aurora B (Homo sapiens, UniProt Q96GD4); assay: Aurora B cell mechanistic assay (HT-29), phospho-Histone H3 (Ser10) ELISA; format: cell-based; settings: HT-29 cell line; inhibition of phospho-Histone H3 (Ser10); at least duplicate experiments (italicized if single experiment); read-out: Aurora B mech IC50
T1 construct: HT-29 cells grown in complete growth media
In short: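 HT-29 cells treated 1 h at 37 °C with serially diluted compound, then 100 nM Calyculin A added for 30 min. Lysates assayed by phospho-Histone H3 (Ser10) ELISA at 450 nm; normalized to DMSO (100%) and a reference Aurora B inhibitor (full inhibition); IC50 by four-parameter fit.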

T1 sequence (Q96GD4 whole entry): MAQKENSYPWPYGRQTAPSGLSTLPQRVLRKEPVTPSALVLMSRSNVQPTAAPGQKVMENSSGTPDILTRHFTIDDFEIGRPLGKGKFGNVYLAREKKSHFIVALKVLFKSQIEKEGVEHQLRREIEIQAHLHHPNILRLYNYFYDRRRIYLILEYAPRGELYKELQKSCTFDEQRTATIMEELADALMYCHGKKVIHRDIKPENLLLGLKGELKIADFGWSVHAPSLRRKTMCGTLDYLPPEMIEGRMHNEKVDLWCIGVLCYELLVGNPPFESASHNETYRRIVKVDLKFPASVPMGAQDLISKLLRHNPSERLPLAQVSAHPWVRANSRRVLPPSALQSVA

SMILES | IC50 [1] | IC50 [2]
COc1ccc(F)c(Cl)c1[C@@H](C)c1c[nH]c2ncc(-c3cnn([C@H]4CC[C@@H](N(C)C)CC4)c3C)cc12 [Example 54, cis-4-(4-{3-[(1S)-1-(2-Chloro-3-fluoro-6-methoxyphenyl)ethyl]-1H-pyrrolo[2,3-b]pyridin-5-yl}-5-methyl-1H-pyrazol-1-yl)-N,N-dimethylcyclohexanamine] | ≤ 50 nM | 200 to 1000 nM
COc1ccc(F)c(Cl)c1[C@@H](C)c1c[nH]c2ncc(-c3cn(C)nc3Cl)cc12 [Example 60, 3-[(1S)-1-(2-chloro-3-fluoro-6-methoxyphenyl)ethyl]-5-(3-chloro-1-methyl-1H-pyrazol-4-yl)-1H-pyrrolo[2,3-b]pyridine] | 50 to 200 nM | 200 to 1000 nM
COc1ccc(F)c(Cl)c1[C@@H](C)c1c[nH]c2ncc(-c3cn(C)nc3OC)cc12 [Example 61, 3-[(1S)-1-(2-Chloro-3-fluoro-6-methoxyphenyl)ethyl]-5-(3-methoxy-1-methyl-1H-pyrazol-4-yl)-1H-pyrrolo[2,3-b]pyridine] | ≤ 50 nM | > 1000 nM
COc1ccc(F)c(Cl)c1[C@@H](C)c1c[nH]c2ncc(-c3cnn(C)c3OC)cc12 [Example 62, 3-[(1S)-1-(2-chloro-3-fluoro-6-methoxyphenyl)ethyl]-5-(5-methoxy-1-methyl-1H-pyrazol-4-yl)-1H-pyrrolo[2,3-b]pyridine] | 50 to 200 nM | > 1000 nM
COc1ccc(F)c(Cl)c1[C@@H](C)c1c[nH]c2ncc(-c3c(C)nn(C)c3Cl)cc12 [Example 63, 5-(5-Chloro-1,3-dimethyl-1H-pyrazol-4-yl)-3-[(1S)-1-(2-chloro-3-fluoro-6-methoxyphenyl)ethyl]-1H-pyrrolo[2,3-b]pyridine] | 200 to 1000 nM | > 1000 nM
COc1ccc(F)c(Cl)c1[C@@H](C)c1c[nH]c2ncc(-c3cncn3C)cc12 [Example 64, 3-[(1S)-1-(2-Chloro-3-fluoro-6-methoxyphenyl)ethyl]-5-(1-methyl-1H-imidazol-5-yl)-1H-pyrrolo[2,3-b]pyridine] | 50 to 200 nM | > 1000 nM
COc1ccc(F)c(Cl)c1[C@@H](C)c1c[nH]c2ncc(-c3cnc(C)n3C)cc12 [Example 65, 3-[(1S)-1-(2-chloro-3-fluoro-6-methoxyphenyl)ethyl]-5-(1,2-dimethyl-1H-imidazol-5-yl)-1H-pyrrolo[2,3-b]pyridine] | 50 to 200 nM | > 1000 nM
Cc1nn(C[C@@H](O)CO)c(C)c1-c1cnc2[nH]cc([C@H](C)c3c(Cl)ccc(F)c3Cl)c2c1 [Example 66, (2R)-3-(4-{3-[(1S)-1-(2,6-Dichloro-3-fluorophenyl)ethyl]-1H-pyrrolo[2,3-b]pyridin-5-yl}-3,5-dimethyl-1H-pyrazol-1-yl)propane-1,2-diol] | ≤ 50 nM | > 1000 nM
Cc1c(-c2cnc3[nH]cc([C@H](C)c4c(Cl)ccc(F)c4Cl)c3c2)cnn1[C@H]1CC[C@H](O)CC1 [Example 67, trans-4-(4-{3-[(1S)-1-(2,6-Dichloro-3-fluorophenyl)ethyl]-1H-pyrrolo[2,3-b]pyridin-5-yl}-5-methyl-1H-pyrazol-1-yl)cyclohexanol] | ≤ 50 nM | > 1000 nM
Cc1nn(C[C@@H](O)CO)c(C)c1-c1cnc2[nH]cc([C@H](C)c3c(OC(F)F)ccc(F)c3Cl)c2c1 [Example 69, (2R)-3-[4-(3-{(1S)-1-[2-Chloro-6-(difluoromethoxy)-3-fluorophenyl]ethyl}-1H-pyrrolo[2,3-b]pyridin-5-yl)-3,5-dimethyl-1H-pyrazol-1-yl]propane-1,2-diol] | ≤ 50 nM | > 1000 nM
Cc1c(-c2cnc3[nH]cc([C@H](C)c4c(OC(F)F)ccc(F)c4Cl)c3c2)cnn1C[C@H](O)CO [Example 70, (2S)-3-[4-(3-{(1S)-1-[2-Chloro-6-(difluoromethoxy)-3-fluorophenyl]ethyl}-1H-pyrrolo[2,3-b]pyridin-5-yl)-5-methyl-1H-pyrazol-1-yl]propane-1,2-diol] | ≤ 50 nM | 200 to 1000 nM
Cc1nn(C[C@H](O)CO)cc1-c1cnc2[nH]cc([C@H](C)c3c(OC(F)F)ccc(F)c3Cl)c2c1 [Example 71, (2S)-3-[4-(3-{(1S)-1-[2-Chloro-6-(difluoromethoxy)-3-fluorophenyl]ethyl}-1H-pyrrolo[2,3-b]pyridin-5-yl)-3-methyl-1H-pyrazol-1-yl]propane-1,2-diol] | ≤ 50 nM | 50 to 200 nM
CCc1c(-c2cnc3[nH]cc([C@H](C)c4c(OC(F)F)ccc(F)c4Cl)c3c2)cnn1CC(C)(C)O [Example 72, 1-[4-(3-{(1S)-1-[2-Chloro-6-(difluoromethoxy)-3-fluorophenyl]ethyl}-1H-pyrrolo[2,3-b]pyridin-5-yl)-5-ethyl-1H-pyrazol-1-yl]-2-methylpropan-2-ol] | 50 to 200 nM | 200 to 1000 nM
CCc1nn(CC(C)(C)O)cc1-c1cnc2[nH]cc([C@H](C)c3c(OC(F)F)ccc(F)c3Cl)c2c1 [Example 73, 1-[4-(3-{(1S)-1-[2-Chloro-6-(difluoromethoxy)-3-fluorophenyl]ethyl}-1H-pyrrolo[2,3-b]pyridin-5-yl)-3-ethyl-1H-pyrazol-1-yl]-2-methylpropan-2-ol] | ≤ 50 nM | > 1000 nM
Cc1c(-c2cnc3[nH]cc([C@H](C)c4c(OC(F)F)ccc(F)c4Cl)c3c2)cnn1[C@H]1CC[C@H](O)CC1 [Example 74, trans-4-[4-(3-{(1S)-1-[2-Chloro-6-(difluoromethoxy)-3-fluorophenyl]ethyl}-1H-pyrrolo[2,3-b]pyridin-5-yl)-5-methyl-1H-pyrazol-1-yl]cyclohexanol] | ≤ 50 nM | 200 to 1000 nM
Cc1c(-c2cnc3[nH]cc([C@H](C)c4c(OC(F)F)ccc(F)c4Cl)c3c2)cnn1[C@@H]1C[C@@H](O)[C@@H](O)C1 [Example 75, (1R,2S,4S)-4-[4-(3-{(1S)-1-[2-Chloro-6-(difluoromethoxy)-3-fluoro-phenyl]ethyl}-1H-pyrrolo[2,3-b]pyridin-5-yl)-5-methyl-1H-pyrazol-1-yl]cyclopentane-1,2-diol] | ≤ 50 nM | 200 to 1000 nM
Cc1c(-c2cnc3[nH]cc([C@H](C)c4c(OC(F)F)ccc(F)c4Cl)c3c2)cnn1[C@H]1CC[C@H](C(N)=O)CC1 [Example 76, trans-4-[4-(3-{(1S)-1-[2-Chloro-6-(difluoromethoxy)-3-fluorophenyl]ethyl}-1H-pyrrolo[2,3-b]pyridin-5-yl)-5-methyl-1H-pyrazol-1-yl]cyclohexanecarboxamide] | ≤ 50 nM | 200 to 1000 nM
CCc1nn([C@H]2CC[C@H](O)CC2)cc1-c1cnc2[nH]cc([C@H](C)c3c(OC(F)F)ccc(F)c3Cl)c2c1 [Example 77, trans-4-[4-(3-{(1S)-1-[2-Chloro-6-(difluoromethoxy)-3-fluorophenyl]ethyl}-1H-pyrrolo[2,3-b]pyridin-5-yl)-3-ethyl-1H-pyrazol-1-yl]cyclohexanol] | ≤ 50 nM | 200 to 1000 nM
CCc1c(-c2cnc3[nH]cc([C@H](C)c4c(OC(F)F)ccc(F)c4Cl)c3c2)cnn1[C@H]1CC[C@H](O)CC1 [Example 78, trans-4-[4-(3-{(1S)-1-[2-Chloro-6-(difluoromethoxy)-3-fluorophenyl]ethyl}-1H-pyrrolo[2,3-b]pyridin-5-yl)-5-ethyl-1H-pyrazol-1-yl]cyclohexanol] | ≤ 50 nM | > 1000 nM
Cc1c(-c2cnc3[nH]cc([C@H](C)c4c(OC(F)F)ccc(F)c4Cl)c3c2)cnn1[C@H]1C[C@@](C)(O)C1 [Example 79, cis-3-[4-(3-{(1S)-1-[2-Chloro-6-(difluoromethoxy)-3-fluorophenyl]ethyl}-1H-pyrrolo[2,3-b]pyridin-5-yl)-5-methyl-1H-pyrazol-1-yl]-1-methylcyclobutanol] | ≤ 50 nM | > 1000 nM
Cc1c(-c2cnc3[nH]cc([C@H](C)c4c(OC(F)F)ccc(F)c4Cl)c3c2)cnn1[C@H]1C[C@@H](O)C1 [Example 81, cis-3-[4-(3-{(1S)-1-[2-Chloro-6-(difluoromethoxy)-3-fluorophenyl]ethyl}-1H-pyrrolo[2,3-b]pyridin-5-yl)-5-methyl-1H-pyrazol-1-yl]cyclobutanol] | ≤ 50 nM | > 1000 nM
C[C@H](c1c(OC(F)F)ccc(F)c1Cl)c1c[nH]c2ncc(-c3cnn([C@H]4CC[C@H](O)CC4)c3Cl)cc12 [Example 82, trans-4-[5-Chloro-4-(3-{(1S)-1-[2-chloro-6-(difluoromethoxy)-3-fluorophenyl]ethyl}-1H-pyrrolo[2,3-b]pyridin-5-yl)-1H-pyrazol-1-yl]cyclohexanol] | ≤ 50 nM | > 1000 nM
C[C@H](c1c(OC(F)F)ccc(F)c1Cl)c1c[nH]c2ncc(-c3cnn([C@H]4CC[C@H](O)CC4)c3CO)cc12 [Example 83, trans-4-[4-(3-{(1S)-1-[2-Chloro-6-(difluoromethoxy)-3-fluorophenyl]ethyl}-1H-pyrrolo[2,3-b]pyridin-5-yl)-5-(hydroxymethyl)-1H-pyrazol-1-yl]cyclohexanol] | ≤ 50 nM | > 1000 nM
C[C@H](c1c(OC(F)F)ccc(F)c1Cl)c1c[nH]c2ncc(-c3cnn([C@H]4CC[C@H](O)CC4)c3F)cc12 [Example 84, trans-4-[4-(3-{(1S)-1-[2-Chloro-6-(difluoromethoxy)-3-fluorophenyl]ethyl}-1H-pyrrolo[2,3-b]pyridin-5-yl)-5-fluoro-1H-pyrazol-1-yl]cyclohexanol] | ≤ 50 nM | 200 to 1000 nM
[2H]C([2H])([2H])c1c(-c2cnc3[nH]cc([C@H](C)c4c(OC(F)F)ccc(F)c4Cl)c3c2)cnn1[C@H]1CC[C@H](O)CC1 [Example 85, trans-4-[4-(3-{(1S)-1-[2-Chloro-6-(difluoromethoxy)-3-fluorophenyl]ethyl}-1H-pyrrolo[2,3-b]pyridin-5-yl)-5-(^2H3)methyl-1H-pyrazol-1-yl]cyclohexanol] | ≤ 50 nM | 200 to 1000 nM
